Data taken from US9451775B2, “Heterocyclic compounds as pesticides” (Bayer Intellectual Property GmbH, priority 2008, dated 2016).
Read-outs that look alike come from different tables or passages of the source.

Assays:
[1] = logP determination by HPLC (formic acid method); type: physicochemical; settings: acidic range (pH 3.4), 55° C., read-out: logP (HCOOH)
Description: 1) Description of the method for determining the logP values (formic acid method)
The logP values given in the table were determined in accordance with EEC Directive 79/831 Annex V.A8 by HPLC (High Performance Liquid Chromatography) on a reversed-phase column (C18). Temperature: 55° C.
Mobile phases for the determination in the acidic range (pH 3.4):
Mobile phase A: Acetonitrile+1 ml of formic acid/litre. Mobile phase B: water+0.9 ml of formic acid/litre.
Gradient: from 10% mobile phase A/90% mobile phase B to 95% mobile phase A/5% mobile phase B in 4.25 min.
Calibration was carried out using unbranched alkan-2-ones (having 3 to 16 carbon atoms) with known logP values (determination of the logP values by the retention times using linear interpolation between two successive alkanones). The lambda max values were determined in the maxima of the chromatographic signals using the UV spectra from 200 nm to 400 nm.

[2] = test system: green peach aphid (Myzus persicae); assay: Myzus test (spray treatment); type: in vivo; settings: foliar, read-out: activity (effect in %, aphids killed)
Description: Myzus Test (Spray Treatment)
• Solvents: 78.0 parts by weight of acetone • 1.5 parts by weight of dimethylformamide • Emulsifier: 0.5 part by weight of alkylaryl polyglycol ether
To produce a suitable preparation of active compound, 1 part by weight of active compound is mixed with the stated amounts of solvents and emulsifier, and the concentrate is diluted with emulsifier-containing water to the desired concentration.
Discs of leaves of Chinese cabbage (Brassica pekinensis) which are heavily infested by all stages of the green peach aphid (Myzus persicae) are sprayed with an active compound preparation of the desired concentration.
After the desired period of time, the effect in % is determined. 100% means that all aphids have been killed; 0% means that none of the aphids have been killed.

[3] = reversed-phase HPLC column (C18), pH 3.4, HPLC on reversed-phase column (C18)
[4] = application rate of 500 g/ha, sprayed Chinese cabbage leaf discs

| chromatographic logP [1, 3] | SMILES | pest or weed control at 500 g/ha [2, 4] [%] | chromatographic logP ([1]; HPLC on reversed-phase column (C18)) | pest or weed control at 500 g/ha ([2]; in Brassica rapa) [%] |
| --- | --- | --- | --- | --- |
| 1.88 | CCc1cccc(-c2nccc(-c3sc(-c4cccnc4)nc3C)n2)n1 [compound 57] | ≥ 80 | – | – |
| 2.25 | CCCc1cccc(-c2nccc(-c3sc(-c4cccnc4)nc3C)n2)n1 [compound 58] | ≥ 80 | – | – |
| 2.12 | COc1cc(OC)nc(-c2nccc(-c3sc(-c4cccnc4)nc3C)n2)n1 [compound 59] | ≥ 80 | – | – |
| 1.57 | COCc1nccc(-c2sc(-c3cccnc3)nc2C)n1 [compound 61] | ≥ 80 | – | – |
| 3.23 | Cc1nc(-c2cccnc2)sc1-c1nc(C(C)C)no1 [compound 62] | ≥ 80 | – | – |
| 2.51 | Cc1nc(-c2cccnc2)sc1-c1nc(-c2cccnc2)no1 [compound 63] | ≥ 80 | – | – |
| 3.34 | Cc1nc(-c2cccnc2)sc1-c1nc(C(F)(F)F)no1 [compound 64] | ≥ 80 | – | – |
| 1.36 | Cc1cc(C)nc(-c2nccc(-c3sc(-c4cccnc4)nc3C)n2)c1 [compound 65] | ≥ 80 | – | – |
| 2.9 | Cc1nc(-c2cccnc2)sc1-c1ccnc(-n2[nH]c(C(F)(F)F)cc2=O)n1 [compound 66] | ≥ 80 | – | – |
| 1.9 | c1cnc(N2CCOC(c3cnc(-c4cccnc4)s3)=N2)nc1 [compound 67] | ≥ 80 | – | – |
| 1.62 | Cc1nc(-c2cccnc2)sc1-c1cccc(S(C)(=O)=O)n1 [compound 68] | ≥ 80 | – | – |
| 1.2 | Cc1nc(-c2cccnc2)sc1-c1ccnc(Cn2cncn2)n1 [compound 69] | ≥ 80 | – | – |
| 1.4 | c1cnc(-c2noc(-c3cnc(-c4cccnc4)s3)n2)nc1 [compound 70] | ≥ 80 | – | – |
| 2.7 | FC(F)(F)c1noc(-c2cnc(-c3cccnc3)s2)n1 [compound 71] | ≥ 80 | – | – |
| 3.11 | Cc1nc(-c2cccnc2)sc1-c1nc(-c2cc3ccccc3cn2)no1 [compound 72] | ≥ 80 | – | – |
| 2.34 | Cc1nc(-c2cccnc2)sc1-c1nc(-c2nc(C)c(C)c(C)n2)no1 [compound 73] | ≥ 80 | – | – |
| 2.81 | COc1cc(OC)nc(-c2noc(-c3sc(-c4cccnc4)nc3C)n2)n1 [compound 74] | ≥ 80 | – | – |
| 2.97 | Cc1nc(-c2cccnc2)sc1-c1nc(C(F)(F)F)co1 [compound 75] | ≥ 80 | – | – |
| 3.11 | Cc1nc(-c2cccnc2)sc1-c1ccn(-c2nnc(C(C)C)s2)n1 [compound 76] | ≥ 80 | – | – |

More lines, now with the values behind:

| SMILES | chromatographic logP [1, 3] | pest or weed control at 500 g/ha [2, 4] [%] | chromatographic logP ([1]; HPLC on reversed-phase column (C18)) | pest or weed control at 500 g/ha ([2]; in Brassica rapa) [%] |
| --- | --- | --- | --- | --- |
| Clc1ccc(-c2cnc(-c3cccnc3)s2)cc1 [compound 13] | 3.23 | ≥ 80 | – | – |
| Cc1nc(-c2cccnc2)sc1-n1ccc(-c2ccccn2)n1 [compound 15] | 1.67 | ≥ 80 | – | – |
| Cc1nc(-c2cccnc2)sc1C1=NCC(c2ccccn2)O1 (stereo not drawn) [compound 16] | 1.72 | ≥ 80 | – | – |
| Cc1nc(-c2cccnc2)sc1-c1cccc(C(F)(F)F)c1 [compound 17] | 3.55 | ≥ 80 | – | – |
| Cc1nc(-c2cccnc2)sc1-c1cccnc1 [compound 18] | 1.1 | ≥ 80 | – | – |
| COC(OC)c1ccn(-c2sc(-c3cccnc3)nc2C)n1 [compound 19] | 1.77 | ≥ 80 | – | – |
| Cc1nc(-c2cccnc2)sc1-n1ccc(Br)n1 [compound 20] | 2.28 | ≥ 80 | – | – |
| Cc1nc(-c2cccnc2)sc1-c1cccc(C(F)(F)F)n1 [compound 21] | 3.01 | ≥ 80 | – | – |
| Cc1nc(-c2cccnc2)sc1-c1ccn(-c2ncccn2)n1 [compound 22] | 1.74 | ≥ 80 | – | – |
| Cc1nc(-c2cccnc2)sc1-c1ccn(CC(F)(F)F)n1 [compound 23] | 2.2 | ≥ 80 | – | – |
| Cc1nc(-c2cccnc2)sc1-c1ccn(-c2ccccn2)n1 [compound 24] | 2.94 | ≥ 80 | – | – |
| Cc1nc(-c2cccnc2)sc1-c1cccc(C2OCCO2)c1 [compound 25] | 2.39 | ≥ 80 | – | – |
| Cc1nc(-c2cccnc2)sc1-c1ccnn1-c1ncccn1 [compound 26] | 1.47 | ≥ 80 | – | – |
| Cc1nc(-c2cccnc2)sc1-n1ccc(-c2ccccc2)n1 [compound 28] | 3.08 | ≥ 80 | – | – |
| Cc1nc(-c2cccnc2)sc1-c1ccnc(-c2ccccn2)n1 [compound 29] | 1.47 | ≥ 80 | – | – |
| Cc1nc(-c2sc(-c3cccnc3)nc2C)cs1 [compound 30] | 2 | ≥ 80 | – | – |
| Cc1nc(-c2cccnc2)sc1-c1cccc(Cl)n1 [compound 31] | 2.66 | ≥ 80 | – | – |
| Cc1nc(-c2cccnc2)sc1-c1cccc(=O)[nH]1 [compound 32] | 1.23 | ≥ 80 | – | – |
| CSc1cnn(-c2sc(-c3cccnc3)nc2C)c1 [compound 33] | 2.21 | ≥ 80 | – | – |
| Cc1nc(-c2cccnc2)sc1-n1ccc(-c2cccs2)n1 [compound 34] | 2.84 | ≥ 80 | – | – |
| Cc1nc(-c2cccnc2)sc1-n1ccc([N+](=O)[O-])n1 [compound 35] | 1.92 | ≥ 80 | – | – |

| SMILES | chromatographic logP [1, 3] | pest or weed control at 500 g/ha [2, 4] [%] | chromatographic logP ([1]; HPLC on reversed-phase column (C18)) | pest or weed control at 500 g/ha ([2]; in Brassica rapa) [%] |
| --- | --- | --- | --- | --- |
| Cc1nc(-c2cccnc2)sc1-n1ccc(-c2ccccc2F)n1 [compound 36] | 3.33 | ≥ 80 | – | – |
| Cc1nc(-c2cccnc2)sc1-n1ccc(-c2ccc(Cl)s2)n1 [compound 37] | 3.81 | ≥ 80 | – | – |
| Cc1nc(-c2cccnc2)sc1-n1ccc(-c2ccccc2C(F)(F)F)n1 [compound 38] | 3.94 | ≥ 80 | – | – |
| Cc1nc(-c2cccnc2)sc1-n1cc(-c2ccccn2)cn1 [compound 39] | 1.55 | ≥ 80 | – | – |
| Cc1nc(-c2cccnc2)sc1-n1ccc(-c2ccco2)n1 [compound 40] | 2.43 | ≥ 80 | – | – |
| Cc1nc(-c2cccnc2)sc1-c1ccnc(-c2ncccc2Cl)n1 [compound 41] | 2.03 | ≥ 80 | – | – |
| Cc1nc(-c2cccnc2)sc1-c1cccc(-c2ccccc2Cl)n1 [compound 42] | 3.97 | ≥ 80 | – | – |
| Cc1nc(-c2cccnc2)sc1-c1cncc(-c2cc(C)n(C)n2)n1 [compound 43] | 1.86 | ≥ 80 | – | – |
| Cc1cc(-c2nccc(-c3sc(-c4cccnc4)nc3C)n2)n(C)n1 [compound 44] | 2.4 | ≥ 80 | – | – |
| Cc1nc(-c2cccnc2)sc1-c1ccnc(C(F)(F)Cl)n1 [compound 45] | 2.95 | ≥ 80 | – | – |
| Cc1nc(-c2cccnc2)sc1-c1ccnc(-c2cccc(Cl)n2)n1 [compound 46] | 2.47 | ≥ 80 | – | – |
| Cc1cc(=O)n(-c2nccc(-c3sc(-c4cccnc4)nc3C)n2)[nH]1 [compound 47] | 1.48 | ≥ 80 | – | – |
| Cc1nc(-c2cccnc2)sc1-c1ccnc(-c2ncc(F)cc2F)n1 [compound 48] | 2.08 | ≥ 80 | – | – |
| Cc1nc(-c2cccnc2)sc1-c1ccnc(-c2cnccn2)n1 [compound 51] | 1.59 | ≥ 80 | – | – |
| Cc1nc(-c2cccnc2)sc1-c1ccnc(-c2ccco2)n1 [compound 52] | 2.35 | ≥ 80 | – | – |
| COC(=O)/C(=N\O)c1nccc(-c2sc(-c3cccnc3)nc2C)n1 [compound 53] | 1.58 | ≥ 80 | – | – |
| Cc1cccc(-c2nccc(-c3sc(-c4cccnc4)nc3C)n2)n1 [compound 54] | 1.49 | ≥ 80 | – | – |
| Cc1ccc(-c2nccc(-c3sc(-c4cccnc4)nc3C)n2)nc1C [compound 55] | 1.49 | ≥ 80 | – | – |
| Cc1nc(-c2nccc(-c3sc(-c4cccnc4)nc3C)n2)cs1 [compound 56] | 2.08 | ≥ 80 | – | – |
| Cc1nc(-c2cccnc2)sc1-c1ccnc(C(F)(F)C(F)(F)C(F)(F)F)n1 [compound 60] | – | – | 3.84 | ≥ 80 |
